Assay results reported in article PMC10333884, “Large‐scale phosphomimetic screening identifies phospho‐modulated motif‐based protein interactions” (Molecular Systems Biology, 2023).
One block for each compound: values may come before it. Residues, ends and D or L forms follow the SMILES beside them. *: point of attachment. FITC = O=C1OC2(c3ccc(O)cc3Oc3cc(O)ccc32)c2ccc(NC(=S)*)cc21

How the values were obtained:
AP2 μ2 [1] = molecular target: T1, AP2 μ2 (Homo sapiens, UniProt Q96CW1); assay: FP displacement assay, AP2 μ2; format: binding; conditions: probe FITC-ATG9A 5 nM, 50 mM sodium phosphate pH 7.4, room temperature, at least three technical replicates, read-out: KD values ± SEM
T1 construct: AP2_Mu__Q96CW1_160_435; GST (cleaved yes); made in house; host or cells: Escherichia coli BL21-Gold(DE3)
T1 sequence (Q96CW1 160-435): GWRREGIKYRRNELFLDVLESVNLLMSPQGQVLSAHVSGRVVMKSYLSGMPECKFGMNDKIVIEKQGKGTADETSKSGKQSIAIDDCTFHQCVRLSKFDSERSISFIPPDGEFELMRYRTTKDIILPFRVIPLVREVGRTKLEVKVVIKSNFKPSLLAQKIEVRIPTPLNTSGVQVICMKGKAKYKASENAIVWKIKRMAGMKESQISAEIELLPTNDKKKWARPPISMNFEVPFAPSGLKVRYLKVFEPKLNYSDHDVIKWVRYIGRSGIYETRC
Description: (§1) FP experiments were performed as described previously (Kliche et al, [2021]). Shortly, in order to monitor the binding event, FITC‐labelled peptides were used (excitation 495 nm, emission: 535 nm) and the FP signal was recorded in mP on a SpectraMax iD5 Multi‐Mode Microplate Reader (Molecular Devices) by measuring the emitted light in two angels. The measurements were performed at room temperature and prepared in nonbinding black half area 96‐well microplates (Corning®; 50 μl/well). For measuring direct binding, that is saturation curves, a 1:1 dilution series of protein domain (25 μl/well) was generated in 50 mM sodium phosphate buffer pH 7.4 and the measurement performed with 5 nM FITC‐labelled peptide (25 μl/well). The buffer‐corrected values were subsequently plotted with PRISM and fitted to the quadratic equation (Gianni et al, [2005]).
The 1:1 dilution series in this experiment was performed with the unlabelled peptide in 50 mM sodium phosphate buffer pH 7.4, so that each well‐contained unlabelled peptide (25 μl) at a certain concentration and pre‐formed complex (25 μl). The KD values of this indirectly monitored binding event were calculated as described previously (Nikolovska‐Coleska et al, [2004]). All measurements were at least in technical triplicates as well as biological duplicates when indicated. An amplitude shift between repeat measurements in the displacement experiments was occasionally observed due to variations in the protein preparations. If that was the case, the “active” protein concentration was back‐calculated according to the quadratic equation from the saturation curves performed in parallel. By comparing the active protein concentrations in the complex between different protein preparations, the amplitude was normalised.

AP2 μ2 [2] = molecular target: T1, AP2 μ2; assay: Phosphomimetic ProP-PD selection, AP2 μ2; conditions: phosphomimetic enrichment score of the wild-type/phosphomimetic (E) pair at the phosphosite, PM_HD2 phage selection, all overlapping peptides and replicates; positive = phosphomimetic enhances binding; P-value in brackets not taken
Description: Selections using the PM_HD2 phage library were performed as described previously with minor modification to the original protocol. The corresponding tag protein (either GST or MBP) was first used during negative selections. Selections were run for 4 days. • Bait and tag proteins (10–15 μg in 100 μl PBS) were immobilised in 96‐well MaxiSorb plate (NUNC) o.n. at 4°C. • Escherichia coli OmniMax bacteria were grown in 2YT medium supplemented with tetracycline (100 μg/ml) at 37°C and 200 rpm. • Plates with immobilised bait/tag proteins were blocked with 0.5% BSA in PBS for 1 h at 4°C. • Phage library (10 μl/well) was prepared by diluting 10× with PBS and adding one‐fourth of the volume of PEG/NaCl. For phage precipitation, prepared library was incubated for 10 min on ice followed by centrifugation for 10 min at 10,000 × g at 4°C. […]
Based on the results from phage pool ELISAs, samples from selection Day 3 and 4 were selected for NGS, as described previously (Benz et al, [2022]). • Peptide coding regions were amplified and dual‐barcoded by PCR. […] From the columns, samples were eluted with 30 μl TE (10 mM Tris–HCl, 1 mM EDTA. pH 7.5) buffer and quantified with Quant‐iT PicoGreen dsDNA Assay Kit. • Samples were sequenced on MiSeq (MSC 2.5.0.5/RTA 1.18.54) with a 151 nt (Read1) setup using “Version3” chemistry. […]

MAP1LC3B ATG8 = molecular target: T2, MAP1LC3B ATG8 (Homo sapiens, UniProt Q9GZQ8); assay: FP saturation experiment, MAP1LC3B ATG8; conditions: FP saturation (direct binding), 5 nM FITC-labelled peptide, 50 mM sodium phosphate pH 7.4, room temperature; at least technical triplicates; reference for probe peptide PMID: 33436498; read-out: KD [µM] + SE
T2 construct: MAP1LC3B ATG8; made in house; host or cells: Escherichia coli BL21-Gold(DE3)
Description: as §1

GABARAPL2 ATG8 = molecular target: T3, GABARAPL2 ATG8 (Homo sapiens, UniProt P60520); assay: FP saturation experiment, GABARAPL2 ATG8; conditions: FP saturation (direct binding), 5 nM FITC-labelled peptide, 50 mM sodium phosphate pH 7.4, room temperature; at least technical triplicates; reference for probe peptide PMID: 33436498; read-out: KD [µM] + SE
T3 construct: GABARAPL2_ATG8__P60520_2_115; GST (cleaved yes); made in house; host or cells: Escherichia coli BL21-Gold(DE3)
Description: as §1

GGA1 VHS = molecular target: T4, GGA1 VHS (Homo sapiens, UniProt Q9UJY5); assay: FP saturation experiment, GGA1 VHS; conditions: FP saturation (direct binding), 5 nM FITC-labelled peptide, 50 mM sodium phosphate pH 7.4, room temperature; at least technical triplicates; reference for probe peptide RiboVD, Mihalič et al, to be published; read-out: KD [µM] + SE
T4 construct: GGA1_VHS__Q9UJY5_1_157; GST (cleaved yes); made in house; host or cells: Escherichia coli BL21-Gold(DE3)
T4 sequence (Q9UJY5 1-157): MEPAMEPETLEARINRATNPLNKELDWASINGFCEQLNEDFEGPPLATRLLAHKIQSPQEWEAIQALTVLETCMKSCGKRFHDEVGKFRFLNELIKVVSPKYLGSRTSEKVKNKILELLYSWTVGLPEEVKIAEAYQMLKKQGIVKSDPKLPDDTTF
Description: as §1

PIN1 WW domain = assay: FP displacement assay, PIN1 WW domain (GST-tagged); format: binding, human; conditions: probe FITC-SMAD3, technical triplicates
Description: For FP, ITC and crystallisation, the tag was removed with the appropriate protease either on beads (0.1 mg/ml thrombin (Cytiva) in PBS, 1 mM dithiothreitol (DTT)) or by dialysis in cleavage buffer (Human Rhinovirus (HRV) 3C protease: 50 mM Tris–HCl pH 7.4, 150 mM NaCl, 1 mM β‐mercaptoethanol), both procedures were overnight. In case of HRV protease cleavage, the tag was separated from the target protein domain by reverse ion metal affinity chromatography using Ni^2+ beads for purification, whereas thrombin was removed using a benzamidine column (Cytiva). Affinity measurements for SNX27 PDZ were performed on the MBP‐tagged construct, as well as PIN1 WW domain on the GST‐tagged construct. For FP and ITC, proteins were dialysed in 50 mM sodium phosphate buffer pH 7.4, 1 mM DTT. For crystallisation of the NTD of clathrin, the protein was further purified by a S200 Sepharose column (Cytiva) using 20 mM Tris–HCl pH 7.4, 150 mM NaCl and 1 mM DTT.
FP experiments were performed as described previously (Kliche et al, [2021]). Shortly, in order to monitor the binding event, FITC‐labelled peptides were used (excitation 495 nm, emission: 535 nm) and the FP signal was recorded in mP on a SpectraMax iD5 Multi‐Mode Microplate Reader (Molecular Devices) by measuring the emitted light in two angels. […]

KPNA4 ARM minor = molecular target: T5, KPNA4 ARM minor (Homo sapiens, UniProt O00629); assay: FP saturation experiment, KPNA4 ARM (minor); conditions: FP saturation (direct binding), 5 nM FITC-labelled peptide, 50 mM sodium phosphate pH 7.4, room temperature; at least technical triplicates; reference for probe peptide PMID: 35044719; read-out: KD [µM] + SE
T5 construct: 60-487; GST (cleaved yes); made in house; host or cells: Escherichia coli BL21-Gold(DE3)
Description: as §1

T5 sequence (O00629 60-487): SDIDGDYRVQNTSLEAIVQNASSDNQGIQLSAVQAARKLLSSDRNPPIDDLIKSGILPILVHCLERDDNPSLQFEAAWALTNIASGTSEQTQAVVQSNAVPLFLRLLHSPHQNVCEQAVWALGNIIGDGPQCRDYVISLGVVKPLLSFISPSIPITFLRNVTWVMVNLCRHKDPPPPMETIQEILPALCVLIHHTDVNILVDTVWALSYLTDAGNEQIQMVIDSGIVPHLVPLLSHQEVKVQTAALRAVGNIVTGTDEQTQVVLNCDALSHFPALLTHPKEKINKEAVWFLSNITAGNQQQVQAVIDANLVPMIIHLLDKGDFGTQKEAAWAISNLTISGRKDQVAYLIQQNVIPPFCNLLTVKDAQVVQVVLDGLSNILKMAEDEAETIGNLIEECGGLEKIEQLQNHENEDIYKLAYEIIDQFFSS
T3 sequence (P60520 2-115): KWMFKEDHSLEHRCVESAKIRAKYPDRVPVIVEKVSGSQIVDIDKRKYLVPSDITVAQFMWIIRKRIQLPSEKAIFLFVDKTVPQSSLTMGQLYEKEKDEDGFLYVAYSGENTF

Compound: CC(C)C[C@H](NC(=O)[C@H](Cc1c[nH]cn1)NC(=O)[C@@H](NC(=O)[C@H](Cc1c[nH]c2ccccc12)NC(=O)[C@H](CC(=O)O)NC(=O)[C@H](CC(=O)O)NC(=O)[C@H](CC(=O)O)NC(=S)Nc1ccc2c(c1)C(=O)OC21c2ccc(O)cc2Oc2cc(O)ccc21)[C@@H](C)O)C(=O)N[C@@H](CO)C(=O)N[C@@H](CO)C(=O)N[C@@H](CCCCN)C(N)=O [FITC-SQSTM1]
Kd (MAP1LC3B ATG8): 2.5 ± 0.2 µM
Kd (GABARAPL2 ATG8): 11 ± 1 µM

Compound: CC[C@H](C)[C@H](NC(=O)[C@H](Cc1c[nH]cn1)NC(=O)[C@H](CC(C)C)NC(=O)[C@H](CC(C)C)NC(=O)[C@H](CC(=O)O)NC(=O)[C@H](CCC(=O)O)NC(=O)[C@H](CC(=O)O)NC(=O)[C@H](CO)NC(=O)[C@H](CC(=O)O)NC(=O)[C@H](CC(=O)O)NC(=S)Nc1ccc2c(c1)C(=O)OC21c2ccc(O)cc2Oc2cc(O)ccc21)C(=O)O [FITC-IGF2R] ({FITC}-DDSDEDLLHI-OH)
Kd (GGA1 VHS): 31 ± 4 µM

Compound: CC(=O)N[C@@H](Cc1ccccc1)C(=O)N1CCC[C@H]1C(=O)N[C@@H](CO)C(=O)N[C@@H](CCC(=O)O)C(=O)N[C@@H](Cc1ccc(O)cc1)C(=O)N[C@H](C(=O)N[C@@H](CCCCN)C(=O)N[C@@H](CC(C)C)C(=O)N[C@@H](CC(C)C)C(=O)N[C@@H](CCC(=O)O)C(=O)N[C@@H](CCC(=O)O)C(=O)N[C@@H](CC(N)=O)C(=O)N[C@@H](CCC(=O)O)C(=O)N[C@H](C(=O)N[C@@H](CCC(=O)O)C(=O)N[C@@H](C)C(N)=O)[C@@H](C)O)[C@@H](C)O [BAIAPL1_392–407 E] (Ac-FPSEYTKLLEENETEA-NH2)
Kd (AP2 μ2 [1]): 490 ± 80 nM
PES (AP2 μ2 [2]): 1.2 (0.095)

Second part, the compound after the results:

Kd (AP2 μ2 [1]): 2050 ± 90 nM
PES (AP2 μ2 [2]): 1 (0.15)
Compound: CC[C@H](C)[C@H](NC(=O)[C@@H](NC(=O)[C@@H]1CCCN1C(=O)[C@H](CCC(=O)O)NC(=O)[C@H](CO)NC(=O)[C@H](C)NC(=O)[C@@H]1CCCN1C(=O)[C@H](CCSC)NC(=O)[C@@H]1CCCN1C(=O)[C@H](CCC(N)=O)NC(=O)[C@H](Cc1ccc(O)cc1)NC(=O)[C@@H]1CCCN1C(=O)[C@@H](NC(=O)[C@@H](NC(=O)[C@H](CCSC)NC(C)=O)[C@@H](C)O)[C@@H](C)CC)C(C)C)C(=O)N[C@@H](CS)C(N)=O [PCBP1_179–194 E] (Ac-MTIPYQPMPASEPVIC-NH2)

binding in FP displacement experiment (PIN1 WW domain): none of the peptides tested
Compound: H3COC-MSETQSS(pS/E)PTKGVLMY-NH2 [PIAS2_493–507 wt, wild-type PIAS2 493-507 peptide]

Kd (KPNA4 ARM minor): 0.013 ± 0.0008 µM
Compound: CC[C@H](C)[C@H](NC(=O)[C@H](C)NC(=O)[C@H](CCCNC(=N)N)NC(=O)CNC(=O)[C@@H](NC(=O)[C@H](CCCNC(=N)N)NC(=O)CNC(=O)[C@H](CCC(=O)O)NC(=O)[C@H](CCSC)NC(=O)[C@H](CCSC)NC(=O)[C@H](CC(=O)O)NC(=O)[C@H](Cc1ccc(O)cc1)NC(=O)[C@@H](NC(=O)[C@H](CCCNC(=N)N)NC(=O)[C@H](CCCCN)NC(=O)[C@@H]1CCCN1C(=S)Nc1ccc2c(c1)C(=O)OC21c2ccc(O)cc2Oc2cc(O)ccc21)[C@@H](C)O)C(C)C)C(N)=O [FITC-NCOR2] ({FITC}-PKRTYDMMEGRVGRAI-NH2)
